Source: patent publication US20100204111A1 (priority 2007, published 2010)
Bridges are numbered along the chain shown (N, C = ends). Where no end group is shown, it is not given here. [ ]: non-standard residue; d: D form. Nle = CCCC[C@H](N)C(=O)O

Experiments:
HIV-1IIIB = assay: HIV-1 antiviral assay in CEM-SS cells; format: cell-based
[1] = test system: Human Peripheral Blood Mononuclear Cells (PBMC), B cell proliferation; assay: B Cell Proliferation Assay (SAC plus Interleukin-2, 3H-thymidine); format: cell-based; conditions: 10 micrograms per ml; SAC plus Interleukin-2 stimulated PBMC; combination: 0.95 mole peptide 1 and 1.05 mole peptide 2
Description: Human Peripheral Blood Mononuclear Cells (PBMC) were obtained from normal human donors. […] 10^5/well PBMC were plated in 96-well microtiter plates and assayed in duplicate with the peptides. […] At the end of incubation time, the plates were harvested and the cells counted by liquid scintillation for the incorporation of ^3H-thymidine as a measure of B cell proliferation.

Interferon-γ (IFN-γ) = assay: Th1/Th2 Cytokine Profiling Assay: IFN-γ; format: cell-based, Balb/c mice; conditions: 10 micrograms per ml; Ovalbumin-restimulated Balb/c spleen cells; 72 hours
Description: (§1) On day 50, spleens of the mice were harvested (3 weeks after last boost with Ovalbumin). […] Thereafter, additional Ovalbumin was added to the cells at 10 micrograms/ml for in vitro restimulation of the cells. 72 hours later, cell supernatants were harvested and assayed using the Becton Dickinson Mouse Th1/Th2 Cytokine CBA Kit. This kit can be used to measure Interleukin-2 (IL-2), Interleukin-4 (IL-4), Interleukin-5 (IL-5), Interferon-γ (IFN-γ), and Tumor Necrosis Factor-α (TNF-α) protein levels in a single sample.

HUVEC = assay: Endothelial Tube Formation Assay; format: cell-based, human; conditions: 10 micrograms per ml, 20 hours, combination peptide 1:peptide 2 0.95 mole:1.05 mole
Description: The endothelial tube formation assay is based on the ability of endothelial cells to form three-dimensional capillary-like tubular structures when cultured on a gel of basement membrane extract. The endothelial tube formation assay represents a powerful model for studying inhibition and induction of angiogenesis. […] Positive control was vehicle only. The endothelial cells were allowed to form tubes foe 20 hours and were then examined under an inverted fluorescent microscope. Duplicate wells for each treatment were photographed and quantitatevily analyzed for an average tubule length using image analysis software ImageProPlus. Raw data were expressed as average tubule lengths in pixels ±standard deviation. Statistic p values were computed using the Student's t-test.

Interleukin-2 (IL-2) = assay: Th1/Th2 Cytokine Profiling Assay: IL-2; format: cell-based, Balb/c mice; conditions: 10 micrograms per ml; Ovalbumin-restimulated Balb/c spleen cells; 72 hours
Description: as §1

Interleukin-4 (IL-4) = assay: Th1/Th2 Cytokine Profiling Assay: IL-4; format: cell-based, Balb/c mice; conditions: 10 micrograms per ml; Ovalbumin-restimulated Balb/c spleen cells; 72 hours
Description: as §1

[2] = test system: Primary Human endothelial cells (HUVEC); assay: Endothelial Cell Migration Assay; format: cell-based; conditions: 10 micrograms per ml, 22 hours, combination peptide 1:peptide 2 0.95 mole:1.05 mole
Description: Primary Human endothelial cells (HUVEC) were seeded in insert chambers with 3 micrometer pore size of multi-transwell plate for 6 hours at 37° C. in Endothelial Cell Basal Medium (EBM) supplemented with 0.1% bovine serum albumin. […] Images of 3 fields per insert were taken and the number of migrated cells per field were quantified using the ImageProPlus software. Data were analyzed for the average number of the migrated cells and standard deviation of six data points for each treatment condition. […] Statistic p values were computed using the Student's t-test.

Interleukin-5 (IL-5) = assay: Th1/Th2 Cytokine Profiling Assay: IL-5; format: cell-based, Balb/c mice; conditions: 10 micrograms per ml; Ovalbumin-restimulated Balb/c spleen cells; 72 hours
Description: as §1

[3] = test system: Tumor Necrosis Factor-α (TNF-α); assay: Th1/Th2 Cytokine Profiling Assay: TNF-α; format: cell-based, Balb/c mice; conditions: 10 micrograms per ml; Ovalbumin-restimulated Balb/c spleen cells; 72 hours
Description: as §1

HCMV strain AD169 = format: cell-based; conditions: MRC-5 cells
[4] = test system: hepatitis B virus (HBV) ayw strain; format: cell-based; conditions: 10 micrograms per ml; HepG2-2.2.15 cells; six days

Molecule	antiviral activity (positive control compounds) (HIV-1IIIB)	induction of the proliferation of specifically stimulated human B-cells [1] [%]	IFNγ spleen cells; TH1 response (% of control) (Interferon-γ (IFN-γ))	inhibition of the tube formation of endothelial cells (HUVEC) [%]	IL-2 spleen cells (% of control) (Interleukin-2 (IL-2))	IL-4 spleen cells; TH2 response (% of control) (Interleukin-4 (IL-4))	inhibition of the migration of human endothelial cells [2] [%]	IL-5 spleen cells; TH2 response (% of control) (Interleukin-5 (IL-5))	TNF-a spleen cells; TH1 response (% of control) [3]	antiviral activity (positive control compound) (HCMV strain AD169; positive control, HCMV AD169)	inhibition of HCMV plaque formation as compared to the virus control (HCMV strain AD169; 10 micrograms per ml, 7-10 days)	inhibition of HBV replication on tested liver cells [4]
CC(C)(C)NC(=O)[C@@H]1CN(Cc2cccnc2)CCN1C[C@@H](O)C[C@@H](Cc1ccccc1)C(=O)N[C@H]1c2ccccc2C[C@H]1O [indinavir]	expected levels of antiviral activity											
Cc1cn([C@H]2C[C@H](N=[N+]=[N-])[C@@H](CO)O2)c(=O)[nH]c1=O [AZT]	expected levels of antiviral activity											
[dF]HLLREVLE[Nle]ARAEQLAQEAHKNRKL[Nle]EII-NH2 (lactam 19-22) [Peptide 1]		11.1	137.6 % of control	31	210.4 % of control	114.4 % of control	13	90.1 % of control	120.0 % of control			
Nc1nc(O)c2ncn(COC(CO)CO)c2n1 [Ganciclovir, reference compound]										expected levels of antiviral activity		
Tyr-Gly-Gly-Phe-Met-Thr-Ser-Glu-Lys-Ser-Gln-Thr-Pro-Leu-Val-Thr-Leu-Phe-Lys-Asn-Ala-Ile-Ile-Lys-Asn-Ala-Tyr-Lys-Lys-Gly-Glu-OH [Peptide 2]		22.7	106.6 % of control	38	163.9 % of control	100.6 % of control	29	103.3 % of control	110.7 % of control		did not inhibit	no effect
